# Source: publication PMC5537305, “Photo-enhanced Aqueous Solubilization of an Azo-compound” (Scientific Reports, 2017)
# Key:
# [1] = Aqueous solubilization of 3 under irradiation at various wavelengths (xenon flash lamp, 96-well plate); format: physicochemical; conditions: for solubility at 1 h: phosphate buffer, 21 °C, pH 7.4, aqueous buffer, thermodynamic from solid, read-out: Aqueous solubilized 3; for solubility at 1 h / Cis ratio: 1 h
# Description: Table S4. Aqueous solubilization and cis ratio of 3 under irradiation at various wavelengths through filters of […]
# Illumination was performed with a xenon lamp using repeated cycles of irradiation and shaking (5000 flashes, then shaking for 10 sec) through filters of various bandwidths at room temperature (20-22 °C) for 1 h. The cis ratio in the aqueous solution was evaluated by HPLC immediately after filtration, based on peak area. […]
# For irradiation at various UV wavelengths, 3 (about 0.1 mg) was ground and taken up in 1/15 M phosphate buffer (pH 7.4, 0.2 mL) in a well of a 96-well white plate. Illumination over a range of wavelength from 355-540 nm was performed using a plate reader EnVision equipped with a xenon flash lamp (35 W, 500 Hz), with excitation filters of appropriate bandwidths. A protocol of irradiation and shaking cycles (5000 flashes, then shaking for 10 sec) was repeated for 1 h at room temperature (20-22 °C). Then, the suspension was filtered through a Millipore Millex-LG (0.20 µm).
# [2] = Aqueous dissolution in the dark of UV-irradiated crystals of 3; format: physicochemical; conditions: for cis ratio contained in the solution, on average: dissolved in the dark; for cis ratio / solubility at 1 h: 37 °C, 1 h; for solubility at 1 h: phosphate buffer, thermodynamic from solid, read-out: Aqueous solubilized 3
# Source text: At the photostationary state under UV irradiation, the equilibria shown in Fig. 3a should be in balance. Here, we are interested in the transient process, i.e., how cis-3 in solution increases when UV irradiation is started. There are two possible routes for generating cis-3 in solution from trans-3 in the solid state: route (i) and (ii). Route (i) is clearly possible, because the process trans solution → cis solution is easily driven by UV irradiation (Fig. S3a). The remaining question is whether cis isomerization of solid 3 is induced under UV irradiation, that is, whether route (ii) also operates. To answer this question, we investigated the aqueous dissolution in the dark of UV-irradiated crystals of 3. The UV-irradiated crystals were clearly more soluble than the unirradiated crystals (Fig. 3b and Table S7). In addition, the cis ratio of UV-irradiated crystals contained in the solution was higher than that of unirradiated crystals (14% vs 4% on average, Table S7). […] Therefore, we conclude that routes (i) and (ii) both operate upon UV irradiation.
# Figure 3 (a) Possible equilibria and routes for generating cis-3 in solution. (b) Kinetics of aqueous dissolution of UV-irradiated crystals of 3, measured in the dark. Crystals of 3 were irradiated with 365 nm LED light (344 mW/cm^2) at 37 °C for 3 h. The UV-irradiated crystals and unirradiated crystals were each shaken with phosphate buffer in the dark at 37 °C for 1 h. Data are the mean ± SD of three individual experiments. The asterisk indicates a significant difference (*p < 0.05) from the unirradiated crystals according to the unpaired, two-sided Student’s t-test. […]
# Table S7. Aqueous dissolution of UV-irradiated crystals of 3 measured in the dark, and the cis ratio contained […]
# Unirradiated crystals UV-irradiated crystals entry Aqueous solubilized 3 cis ratio (%) Aqueous solubilized 3 cis ratio (%) […]
# Crystals of 3 were irradiated with 365 nm LED light (344 mW/cm2) at 37 °C for 3 h. It should be noted that […]
# The UV-irradiated crystals and unirradiated crystals were each shaken in phosphate buffer in the dark at 37 °C for 1 h.
# [3] = wavelength 380 nm, bandwidth 10 nm, room temperature
# [4] = wavelength 405 nm, bandwidth 8 nm, room temperature
# [5] = wavelength 450 nm, bandwidth 8 nm, room temperature
# [6] = wavelength 485 nm, bandwidth 14 nm, room temperature
# [7] = wavelength 535 nm, bandwidth 25 nm, room temperature
# [8] = wavelength 540 nm, bandwidth 8 nm, room temperature
compound,measurement,setting,value
CC(C)n1nc(/N=N/c2ccccc2)c2c(N)ncnc21 [Compound 3],trans ratio at photostationary state (maximum),[1]; irradiation at 535 nm,93%
same,solubility at 1 h,"[1]; wavelength 355 nm, bandwidth 40 nm, room temperature (20-22 °C)",4.8 µg/mL
same,solubility at 1 h,[1]; [3],2.8 µg/mL
same,solubility at 1 h,[1]; [4],2.4 µg/mL
same,solubility at 1 h,[1]; [5],0.75 µg/mL
same,solubility at 1 h,[1]; [6],0.47 µg/mL
same,solubility at 1 h,[1]; [7],0.57 µg/mL
same,solubility at 1 h,[1]; [8],0.28 µg/mL
same,Cis ratio,"[1]; wavelength 355 nm, bandwidth 40 nm, room temperature",90%
same,Cis ratio,[1]; [3],90%
same,Cis ratio,[1]; [4],78%
same,Cis ratio,[1]; [5],44%
same,Cis ratio,[1]; [6],20%
same,Cis ratio,[1]; [7],7%
same,Cis ratio,[1]; [8],7%
same,"cis ratio contained in the solution, on average",[2]; UV-irradiated crystals,14%
same,cis ratio,"[2]; UV-irradiated crystals, entry 1, dark",21%
same,cis ratio,"[2]; UV-irradiated crystals, entry 2, dark",14%
same,cis ratio,"[2]; UV-irradiated crystals, entry 3, dark",7%
same,cis ratio,"[2]; Unirradiated crystals, entry 1, dark",5%
same,cis ratio,"[2]; Unirradiated crystals, entry 2, dark",3%
same,cis ratio,"[2]; Unirradiated crystals, entry 3, dark",4%
same,solubility at 1 h,"[2]; aqueous buffer, Unirradiated crystals, entry 2, dark",2.6 µg/mL
same,solubility at 1 h,"[2]; pH 7.4, aqueous buffer, UV-irradiated crystals (365 nm LED 344 mW/cm2, 37 °C, 3 h), entry 1, dark",3.7 µg/mL
same,solubility at 1 h,"[2]; pH 7.4, aqueous buffer, UV-irradiated crystals, entry 2, dark",3.4 µg/mL
same,solubility at 1 h,"[2]; pH 7.4, aqueous buffer, UV-irradiated crystals, entry 3, dark",3.2 µg/mL
same,solubility at 1 h,"[2]; pH 7.4, aqueous buffer, Unirradiated crystals, entry 1, phosphate buffer, dark",2.8 µg/mL
same,solubility at 1 h,"[2]; pH 7.4, aqueous buffer, Unirradiated crystals, entry 3, dark",3 µg/mL
same,"cis ratio contained in the solution, on average",[2]; unirradiated crystals,4%
